US5534632A, “Macrocyclic carbamate immunomodulators” (Abbott Laboratories, priority 1994, dated 1996)

Tested on: human mixed lymphocyte reaction (MLR)
Experiment: human mixed lymphocyte reaction (MLR) assay, immunosuppressant activity
Type: cell-based
Conditions: Table 1
Experimental: The immunosuppressant activity of the compounds of the present invention was determined using the human mixed lymphocyte reaction (MLR) assay described by Kino, T. et al. in Transplantation Proceedings, XIX(5):36-39,Suppl.

| Compound | IC50 [nM] |
| --- | --- |
| CC[C@@H]1/C=C(\C)C[C@H](C)C[C@H](OC)[C@H]2O[C@@](O)(C(=O)C(=O)N3CCCC[C@H]3C(=O)O[C@H](/C(C)=C/[C@@H]3CC[C@@H](OC(=O)N4CCCCC4)[C@H](OC)C3)[C@H](C)[C@@H](O)CC1=O)[C@H](C)C[C@@H]2OC [Example 12] | 1.2 |
| CC[C@@H]1/C=C(\C)C[C@H](C)C[C@H](OC)[C@H]2O[C@@](O)(C(=O)C(=O)N3CCCC[C@H]3C(=O)O[C@H](/C(C)=C/[C@@H]3CC[C@@H](OC(=O)N(CC)CCO)[C@H](OC)C3)[C@H](C)[C@@H](O)CC1=O)[C@H](C)C[C@@H]2OC [Example 28] | 4.26 |
| CC[C@@H]1/C=C(\C)C[C@H](C)C[C@H](OC)[C@H]2O[C@@](O)(C(=O)C(=O)N3CCCC[C@H]3C(=O)O[C@H](/C(C)=C/[C@@H]3CC[C@@H](OC(=O)N(C)Cc4ccccc4)[C@H](OC)C3)[C@H](C)[C@@H](O)CC1=O)[C@H](C)C[C@@H]2OC [Example 29] | 4.45 |
| CC[C@@H]1/C=C(\C)C[C@H](C)C[C@H](OC)[C@H]2O[C@@](O)(C(=O)C(=O)N3CCCC[C@H]3C(=O)O[C@H](/C(C)=C/[C@@H]3CC[C@H](OC(=O)Nc4ccncc4)[C@H](OC)C3)[C@H](C)[C@@H](O)CC1=O)[C@H](C)C[C@@H]2OC [Example 43] | 0.34 |
| CC[C@@H]1/C=C(\C)C[C@H](C)C[C@H](OC)[C@H]2O[C@@](O)(C(=O)C(=O)N3CCCC[C@H]3C(=O)O[C@H](/C(C)=C/[C@@H]3CC[C@H](OC(=O)N4CCOCC4)[C@H](OC)C3)[C@H](C)[C@@H](O)CC1=O)[C@H](C)C[C@@H]2OC [Example 41] | 0.08 |
| CC[C@@H]1/C=C(\C)C[C@H](C)C[C@H](OC)[C@H]2O[C@@](O)(C(=O)C(=O)N3CCCC[C@H]3C(=O)O[C@H](/C(C)=C/[C@@H]3CC[C@H](OC(=O)N(CCO)CCO)[C@H](OC)C3)[C@H](C)[C@@H](O)CC1=O)[C@H](C)C[C@@H]2OC [Example 45] | 0.11 |
| CC[C@@H]1/C=C(\C)C[C@H](C)C[C@H](OC)[C@H]2O[C@@](O)(C(=O)C(=O)N3CCCC[C@H]3C(=O)O[C@H](/C(C)=C/[C@@H]3CC[C@@H](OC(=O)N4CCC(=O)CC4)[C@H](OC)C3)[C@H](C)[C@@H](O)CC1=O)[C@H](C)C[C@@H]2OC [Example 16] | 4.75 |
| CC[C@@H]1/C=C(\C)C[C@H](C)C[C@H](OC)[C@H]2O[C@@](O)(C(=O)C(=O)N3CCCC[C@H]3C(=O)O[C@H](/C(C)=C/[C@@H]3CC[C@@H](OC(=O)N4CCC(c5ccccc5)CC4)[C@H](OC)C3)[C@H](C)[C@@H](O)CC1=O)[C@H](C)C[C@@H]2OC [Example 19] | 2.6 |
| CC[C@@H]1/C=C(\C)C[C@H](C)C[C@H](OC)[C@H]2O[C@@](O)(C(=O)C(=O)N3CCCC[C@H]3C(=O)O[C@H](/C(C)=C/[C@@H]3CC[C@@H](OC(=O)Nc4ccncc4)[C@H](OC)C3)[C@H](C)[C@@H](O)CC1=O)[C@H](C)C[C@@H]2OC [Example 14] | 0.48 |
| CC[C@@H]1/C=C(\C)C[C@H](C)C[C@H](OC)[C@H]2O[C@@](O)(C(=O)C(=O)N3CCCC[C@H]3C(=O)O[C@H](/C(C)=C/[C@@H]3CC[C@@H](OC(=O)N4CCOCC4)[C@H](OC)C3)[C@H](C)[C@@H](O)CC1=O)[C@H](C)C[C@@H]2OC [Example 8] | 0.4 |
| CC[C@@H]1/C=C(\C)C[C@H](C)C[C@H](OC)[C@H]2O[C@@](O)(C(=O)C(=O)N3CCCC[C@H]3C(=O)O[C@H](/C(C)=C/[C@@H]3CC[C@@H](OC(=O)N(CCO)CCO)[C@H](OC)C3)[C@H](C)[C@@H](O)CC1=O)[C@H](C)C[C@@H]2OC [Example 13] | 3.3 |
| CC[C@@H]1/C=C(\C)C[C@H](C)C[C@H](OC)[C@H]2O[C@@](O)(C(=O)C(=O)N3CCCC[C@H]3C(=O)O[C@H](/C(C)=C/[C@@H]3CC[C@@H](OC(=O)N4CCOCCOCCOCCOCC4)[C@H](OC)C3)[C@H](C)[C@@H](O)CC1=O)[C@H](C)C[C@@H]2OC [Example 34] | 1.1 |
| CC[C@@H]1/C=C(\C)C[C@H](C)C[C@H](OC)[C@H]2O[C@@](O)(C(=O)C(=O)N3CCCC[C@H]3C(=O)O[C@H](/C(C)=C/[C@@H]3CC[C@@H](OC(=O)N4CCC(O)CC4)[C@H](OC)C3)[C@H](C)[C@@H](O)CC1=O)[C@H](C)C[C@@H]2OC [Example 15] | 1.34 |
| CC[C@@H]1/C=C(\C)C[C@H](C)C[C@H](OC)[C@H]2O[C@@](O)(C(=O)C(=O)N3CCCC[C@H]3C(=O)O[C@H](/C(C)=C/[C@@H]3CC[C@@H](OC(=O)N(C)CCc4ccccc4)[C@H](OC)C3)[C@H](C)[C@@H](O)CC1=O)[C@H](C)C[C@@H]2OC [Example 30] | 4.2 |
| CC[C@@H]1/C=C(\C)C[C@H](C)C[C@H](OC)[C@H]2O[C@@](O)(C(=O)C(=O)N3CCCC[C@H]3C(=O)O[C@H](/C(C)=C/[C@@H]3CC[C@H](OC(=O)NC(CO)(CO)CO)[C@H](OC)C3)[C@H](C)[C@@H](O)CC1=O)[C@H](C)C[C@@H]2OC [Example 40] | 0.68 |
| CC[C@@H]1/C=C(\C)C[C@H](C)C[C@H](OC)[C@H]2O[C@@](O)(C(=O)C(=O)N3CCCC[C@H]3C(=O)O[C@H](/C(C)=C/[C@@H]3CC[C@@H](OC(=O)N4CCC(C(N)=O)CC4)[C@H](OC)C3)[C@H](C)[C@@H](O)CC1=O)[C@H](C)C[C@@H]2OC [Example 36] | 15 |
| CC[C@@H]1/C=C(\C)C[C@H](C)C[C@H](OC)[C@H]2O[C@@](O)(C(=O)C(=O)N3CCCC[C@H]3C(=O)O[C@H](/C(C)=C/[C@@H]3CC[C@@H](OC(=O)N4CCNCC4)[C@H](OC)C3)[C@H](C)[C@@H](O)CC1=O)[C@H](C)C[C@@H]2OC [Example 21] | 11 |
| CC[C@@H]1/C=C(\C)C[C@H](C)C[C@H](OC)[C@H]2O[C@@](O)(C(=O)C(=O)N3CCCC[C@H]3C(=O)O[C@H](/C(C)=C/[C@@H]3CC[C@@H](OC(=O)N(O)C4CCCCC4)[C@H](OC)C3)[C@H](C)[C@@H](O)CC1=O)[C@H](C)C[C@@H]2OC [Example 26] | 1 |
| CC[C@@H]1/C=C(\C)C[C@H](C)C[C@H](OC)[C@H]2O[C@@](O)(C(=O)C(=O)N3CCCC[C@H]3C(=O)O[C@H](/C(C)=C/[C@@H]3CC[C@@H](OC(=O)N(C)CCN(CC)CC)[C@H](OC)C3)[C@H](C)[C@@H](O)CC1=O)[C@H](C)C[C@@H]2OC [Example 35] | 1.79 |
| CC[C@@H]1/C=C(\C)C[C@H](C)C[C@H](OC)[C@H]2O[C@@](O)(C(=O)C(=O)N3CCCC[C@H]3C(=O)O[C@H](/C(C)=C/[C@@H]3CC[C@@H](OC(=O)N(C)OC)[C@H](OC)C3)[C@H](C)[C@@H](O)CC1=O)[C@H](C)C[C@@H]2OC [Example 24] | 1.1 |
| CC[C@@H]1/C=C(\C)C[C@H](C)C[C@H](OC)[C@H]2O[C@@](O)(C(=O)C(=O)N3CCCC[C@H]3C(=O)O[C@H](/C(C)=C/[C@@H]3CC[C@@H](OC(=O)NO)[C@H](OC)C3)[C@H](C)[C@@H](O)CC1=O)[C@H](C)C[C@@H]2OC [Example 27] | 1.28 |
| CC[C@@H]1/C=C(\C)C[C@H](C)C[C@H](OC)[C@H]2O[C@@](O)(C(=O)C(=O)N3CCCC[C@H]3C(=O)O[C@H](/C(C)=C/[C@@H]3CC[C@@H](OC(=O)N(C)C[C@H](O)[C@@H](O)[C@H](O)[C@H](O)CO)[C@H](OC)C3)[C@H](C)[C@@H](O)CC1=O)[C@H](C)C[C@@H]2OC [Example 23] | 50 |
| CC[C@@H]1/C=C(\C)C[C@H](C)C[C@H](OC)[C@H]2O[C@@](O)(C(=O)C(=O)N3CCCC[C@H]3C(=O)O[C@H](/C(C)=C/[C@@H]3CC[C@@H](OC(=O)N(C)O)[C@H](OC)C3)[C@H](C)[C@@H](O)CC1=O)[C@H](C)C[C@@H]2OC [Example 25] | 0.28 |
| CC[C@@H]1/C=C(\C)C[C@H](C)C[C@H](OC)[C@H]2O[C@@](O)(C(=O)C(=O)N3CCCC[C@H]3C(=O)O[C@H](/C(C)=C/[C@@H]3CC[C@@H](OC(=O)N4CCC(C(=O)O)CC4)[C@H](OC)C3)[C@H](C)[C@@H](O)CC1=O)[C@H](C)C[C@@H]2OC [Example 18] | 13 |
| CC[C@@H]1/C=C(\C)C[C@H](C)C[C@H](OC)[C@H]2O[C@@](O)(C(=O)C(=O)N3CCCC[C@H]3C(=O)O[C@H](/C(C)=C/[C@@H]3CC[C@@H](OC(=O)NOCc4ccccc4)[C@H](OC)C3)[C@H](C)[C@@H](O)CC1=O)[C@H](C)C[C@@H]2OC [Example 6] | 0.21 |
| CC[C@@H]1/C=C(\C)C[C@H](C)C[C@H](OC)[C@H]2O[C@@](O)(C(=O)C(=O)N3CCCC[C@H]3C(=O)O[C@H](/C(C)=C/[C@@H]3CC[C@@H](OC(=O)NNC(N)=O)[C@H](OC)C3)[C@H](C)[C@@H](O)CC1=O)[C@H](C)C[C@@H]2OC [Example 5] | 8.7 |
| CCOC(=O)CN(C)C(=O)O[C@@H]1CC[C@@H](/C=C(\C)[C@H]2OC(=O)[C@@H]3CCCCN3C(=O)C(=O)[C@]3(O)O[C@H]([C@@H](OC)C[C@@H](C)C/C(C)=C/[C@@H](CC)C(=O)C[C@H](O)[C@H]2C)[C@@H](OC)C[C@H]3C)C[C@H]1OC [Example 32] | 27 |
| CC[C@@H]1/C=C(\C)C[C@H](C)C[C@H](OC)[C@H]2O[C@@](O)(C(=O)C(=O)N3CCCC[C@H]3C(=O)O[C@H](/C(C)=C/[C@@H]3CC[C@@H](OC(=O)N4CCN(C)CC4)[C@H](OC)C3)[C@H](C)[C@@H](O)CC1=O)[C@H](C)C[C@@H]2OC [Example 22] | 28 |
